# Experiments:
# Beta-secretase 1 = Beta-secretase 1 (Homo sapiens, UniProt P56817); assay: Binding affinity against human brain memapsin 2; type: tissue-based
# [1] = molecular target: T1, Lanosterol synthase (Homo sapiens) (UniProt P48449); assay: Inhibitory activity against lanosteral synthase at 0.5 umol/assay; design: scale not given: the % may be the effect or the level left
# T1 sequence (whole entry): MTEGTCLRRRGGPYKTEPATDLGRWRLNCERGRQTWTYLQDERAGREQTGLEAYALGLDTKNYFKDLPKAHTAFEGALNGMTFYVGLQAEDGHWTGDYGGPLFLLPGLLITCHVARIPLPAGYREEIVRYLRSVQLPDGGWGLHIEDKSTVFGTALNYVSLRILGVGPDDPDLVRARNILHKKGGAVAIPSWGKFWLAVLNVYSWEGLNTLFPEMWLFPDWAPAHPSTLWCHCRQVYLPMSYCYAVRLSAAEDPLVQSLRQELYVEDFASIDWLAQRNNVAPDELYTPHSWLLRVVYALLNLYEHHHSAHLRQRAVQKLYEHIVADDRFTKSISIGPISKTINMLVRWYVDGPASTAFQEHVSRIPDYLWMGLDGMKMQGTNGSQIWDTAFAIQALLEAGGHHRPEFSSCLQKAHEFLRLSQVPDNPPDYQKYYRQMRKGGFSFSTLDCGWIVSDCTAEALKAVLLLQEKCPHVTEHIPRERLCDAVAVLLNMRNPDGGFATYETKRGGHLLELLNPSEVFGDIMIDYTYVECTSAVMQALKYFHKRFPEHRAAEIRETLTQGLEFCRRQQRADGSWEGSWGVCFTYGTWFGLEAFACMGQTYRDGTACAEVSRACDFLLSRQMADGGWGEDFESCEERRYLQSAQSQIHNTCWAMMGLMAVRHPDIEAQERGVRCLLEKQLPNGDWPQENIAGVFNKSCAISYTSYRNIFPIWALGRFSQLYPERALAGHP
# [2] = molecular target: T1, Lanosterol synthase (Homo sapiens); assay: Inhibitory activity against lanosteral synthase at 0.25 umol/assay; n.d. = not detected
# [3] = molecular target: T1, Lanosterol synthase (Homo sapiens); assay: Inhibitory activity against lanosteral synthase at 0.4 umol/assay; design: scale not given: the % may be the effect or the level left
# [4] = molecular target: T1, Lanosterol synthase (Homo sapiens); assay: Inhibitory activity against lanosteral synthase at 0.25 umol/assay; design: scale not given: the % may be the effect or the level left
# [5] = molecular target: T1, Lanosterol synthase (Homo sapiens); assay: Inhibitory activity against lanosteral synthase at 0.5 umol/assay; n.d. = not detected
# Sequence of Beta-secretase 1 (P56817 whole entry): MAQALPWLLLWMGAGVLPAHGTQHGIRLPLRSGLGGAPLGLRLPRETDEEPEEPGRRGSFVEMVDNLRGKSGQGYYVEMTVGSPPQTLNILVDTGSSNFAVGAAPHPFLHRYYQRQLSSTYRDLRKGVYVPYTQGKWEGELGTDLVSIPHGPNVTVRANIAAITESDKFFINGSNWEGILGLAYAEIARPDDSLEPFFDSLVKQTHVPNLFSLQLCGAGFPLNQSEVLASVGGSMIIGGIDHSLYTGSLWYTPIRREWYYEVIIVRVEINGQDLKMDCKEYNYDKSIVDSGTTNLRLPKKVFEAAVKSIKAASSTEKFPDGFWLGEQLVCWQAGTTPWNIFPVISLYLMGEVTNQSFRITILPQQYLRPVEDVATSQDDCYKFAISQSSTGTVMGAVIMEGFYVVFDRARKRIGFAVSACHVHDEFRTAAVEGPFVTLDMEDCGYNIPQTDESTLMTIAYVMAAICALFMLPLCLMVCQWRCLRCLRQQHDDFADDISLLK
Activity [1],Activity [4],SMILES,other results
–,–,C=CCNC(=O)C[C@H](NC(=O)C(NC(=O)OCC=C)C(C)C)C(=O)N[C@@H](CC(C)C)[C@@H](O)C[C@@H](C)C(=O)N[C@H](C(=O)NCc1ccccc1)C(C)C (stereo partly specified),Ki (Beta-secretase 1): 26.6 nM
20%,–,CC/C=C\C/C=C\C/C=C\CCCCCCCC(=O)OC(COC(=O)CCCCCCC/C=C\CCCCCC)CO[C@@H]1O[C@H](CO[C@H]2O[C@H](CO)[C@H](O)[C@H](O)[C@H]2O)[C@H](O)[C@H](O)[C@H]1O (stereo partly specified),Activity [2]: Not detected
–,–,CC/C=C\C/C=C\C/C=C\CCCCCCCC(=O)OC(COC(=O)CCCCCCCCCCCCC)CO[C@@H]1OC(CO)[C@H](O)[C@@H](O)C1O (stereo partly specified),Activity [3]: 23%
38%,22%,CC/C=C\C/C=C\C/C=C\CCCCCCCC(=O)OCC(CO[C@@H]1OC(CO[C@H]2OC(CO)[C@H](O)[C@@H](O)C2O)[C@H](O)[C@@H](O)C1O)OC(=O)CCCCCCCCCCCCC (stereo partly specified),–
45%,35%,CCCCCC/C=C\CCCCCCCC(=O)OC(COC(=O)CCCCCCCCCCCCC)CO[C@@H]1OC(CO[C@H]2OC(CO)[C@H](O)[C@@H](O)C2O)[C@H](O)[C@@H](O)C1O (stereo partly specified),–
21%,4%,CCCCCC/C=C\CCCCCCCC(=O)OCC(CO[C@@H]1O[C@H](CO[C@H]2O[C@H](CO)[C@H](O)[C@H](O)[C@H]2O)[C@H](O)[C@H](O)[C@H]1O)OC(=O)CCCCCCC/C=C/CCCCCCCC (stereo partly specified),–
24%,4%,CCCCCC/C=C\CCCCCCCC(=O)OCC(CO[C@@H]1O[C@H](CO[C@H]2O[C@H](CO)[C@H](O)[C@H](O)[C@H]2O)[C@H](O)[C@H](O)[C@H]1O)OC(=O)CCCCCCC/C=C\CCCCCC (stereo partly specified),–
–,–,OCC(O)CO[C@@H]1O[C@H](CO[C@H]2O[C@H](CO)[C@H](O)[C@H](O)[C@H]2O)[C@H](O)[C@H](O)[C@H]1O (stereo partly specified),Activity [2]: Not detected; Activity [5]: Not detected
–,–,"CC/C=C\C/C=C\C/C=C\CCCCCCCC(=O)OC(COC(=O)CCCCCCC/C=C\CCCCCC)CO[C@@H]1O[C@H](CO)[C@H](O)C(O)[C@H]1O (single isomer, unassigned)",Activity [3]: 16%
–,–,"CC/C=C\C/C=C\C/C=C\CCCCCCCC(=O)OCC(CO[C@@H]1O[C@H](CO)[C@H](O)C(O)[C@H]1O)OC(=O)CCCCCCC/C=C\CCCCCCCC (single isomer, unassigned)",Activity [3]: 19%
31%,8%,"CC/C=C\C/C=C\C/C=C\CCCCCCCC(=O)OCC(CO[C@@H]1O[C@H](CO[C@H]2O[C@H](CO)[C@H](O)C(O)[C@H]2O)[C@H](O)C(O)[C@H]1O)OC(=O)CCCCCCC/C=C/CCCCCCCC (single isomer, unassigned)",–
46%,24%,"CCCCCC/C=C/CCCCCCCC(=O)OC(COC(=O)CCCCCCC/C=C/CCCCCCCC)CO[C@@H]1O[C@H](COC2O[C@H](CO)[C@H](O)C(O)[C@H]2O)[C@H](O)C(O)[C@H]1O (single isomer, unassigned)",–
57%,42%,"CCCCCCCC/C=C/CCCCCCCC(=O)OCC(CO[C@@H]1O[C@H](CO[C@H]2O[C@H](CO)[C@H](O)C(O)[C@H]2O)[C@H](O)C(O)[C@H]1O)OC(=O)CCCCCCC/C=C/CCCCCCCC (single isomer, unassigned)",–
72%,51%,"CCCCCCCCCCCCCC(=O)OCC(CO[C@@H]1O[C@H](CO[C@H]2O[C@H](CO)[C@H](O)C(O)[C@H]2O)[C@H](O)C(O)[C@H]1O)OC(=O)CCCCCCCCCCCCC (single isomer, unassigned)",–
45%,18%,"CC/C=C\C/C=C\C/C=C\CCCCCCCC(=O)OCC(CO[C@@H]1O[C@H](CO[C@H]2O[C@H](CO)[C@H](O)C(O)[C@H]2O)[C@H](O)C(O)[C@H]1O)OC(=O)CCCCCCC/C=C\C/C=C\C/C=C\CC (single isomer, unassigned; 2d)",–
40%,9%,"CC/C=C\C/C=C\C/C=C\CCCCCCCC(=O)OC(COC(=O)CCCCCCC/C=C/CCCCCCCC)CO[C@@H]1O[C@H](CO[C@H]2O[C@H](CO)[C@H](O)C(O)[C@H]2O)[C@H](O)C(O)[C@H]1O (single isomer, unassigned; 2f)",–
29%,7%,"CC/C=C\C/C=C\C/C=C\CCCCCCCC(=O)OC(COC(=O)CCCCCCC/C=C/CCCCCCCC)CO[C@@H]1O[C@H](CO[C@H]2O[C@H](CO)[C@H](O)C(O)[C@H]2O)[C@H](O)C(O)[C@H]1O (single isomer, unassigned; 2i)",–
27%,3%,"CC/C=C\C/C=C\C/C=C\CCCCCCCC(=O)OCC(CO[C@@H]1O[C@H](CO[C@H]2O[C@H](CO)[C@H](O)C(O)[C@H]2O)[C@H](O)C(O)[C@H]1O)OC(=O)CCCCCCC/C=C\CCCCCC (single isomer, unassigned; 2j)",–
26%,–,"CC/C=C\C/C=C\C/C=C\CCCCCCCC(=O)OCC(CO[C@@H]1O[C@H](CO[C@H]2O[C@H](CO)[C@H](O)C(O)[C@H]2O)[C@H](O)C(O)[C@H]1O)OC(=O)CCCCCCC/C=C\C/C=C\C/C=C\CC (single isomer, unassigned; 2k)",Activity [2]: Not detected
26%,5%,"CC/C=C\C/C=C\C/C=C\CCCCCCCC(=O)OCC(CO[C@@H]1O[C@H](CO[C@H]2O[C@H](CO)[C@H](O)C(O)[C@H]2O)[C@H](O)C(O)[C@H]1O)OC(=O)CCCCCCC/C=C\CCCCCC (single isomer, unassigned; 2l)",–
